These results are taken from patent publication US11370785B2, “Multicyclic compounds as farnesoid X receptor modulators” (BRISTOL-MYERS SQUIBB COMPANY, priority 2017, dated 2022).

The first assay has as its target T1, human FXR (Homo sapiens, UniProt Q96RI1).
T1 construct: expressed in transfected cells; host or cells: HEK293 cells stably carrying a 5xGal4-response-element firefly luciferase reporter, transiently transfected with the pcDNA3.1-Gal4-FXR plasmid
T1 sequence (Q96RI1 262-486 limits assumed): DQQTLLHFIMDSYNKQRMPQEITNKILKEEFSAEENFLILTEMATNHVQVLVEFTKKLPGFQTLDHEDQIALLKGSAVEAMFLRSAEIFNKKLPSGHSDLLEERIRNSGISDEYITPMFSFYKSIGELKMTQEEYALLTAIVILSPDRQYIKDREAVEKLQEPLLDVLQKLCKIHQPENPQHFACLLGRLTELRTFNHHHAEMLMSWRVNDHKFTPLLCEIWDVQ
The experiment in a line: transient human FXR/Gal4-luciferase reporter assay. It counts as cell-based. Conditions: Gal4-hFXR reporter in HEK293 cells; read-out: HLE GAL-FXR EC50. Here is the method:
The exemplified compounds of the present invention were tested in the transient human FXR/Gal4-luciferase reporter assay, and assay results were reported in Table 1 together with other analytical data.
A Gal4-hFXR fusion construct reporter system was used as the primary assay to characterize compound activity. A construct including 5 copies of the Gal4 promoter response element upstream of a firefly luciferase reporter cDNA was stably expressed in HEK293 cells. This reporter cell line was maintained in Dulbecco's Modified Eagle's medium (DMEM; Gibco) supplemented with 1% penicillin-streptomycin (P/S) solution, 500 μg/mL Zeocin and 10% charcoal/dextran-treated fetal bovine serum (cs-FBS) at 37° C. in a humidified 5% CO2 atmosphere. Another plasmid was constructed in which the human cytomegalovirus promoter in the pcDNA3.1 vector directs the expression of the cDNA encoding a fusion protein comprised of the DNA binding domain from the Gal4 transcription factor fused to the ligand binding domain from human FXR.
The day prior to transfection, the reporter cells in culture are detached from the plate with trypsin and plated into a T75 flask at a sufficient density to achieve approximately 90% confluence the next morning. The transfection reagents are prepared by separately diluting 25 μg of the pcDNA3.1-Gal4-FXR plasmid into 1.87 mL of Opti-MEM (Thermo-Fisher), and 40 μL of Lipofectamine 2000 (Thermo-Fisher) into 1.87 mL of Opti-MEM, and then adding the diluted DNA solution into the diluted Lipofectamine 2000 solution and incubating at room temperature for 15-20 minutes. The mixture is further diluted with 10 mL of a solution comprised of DMEM, 10% cs-FBS, and 1% P/S immediately prior to transferring to the cells. The maintenance culture media is aspirated from the cells and the final transfection mixture is added before the cells are incubated overnight at 37° C. in a humidified 5% CO2 atmosphere. This protocol can be scaled up, and the transiently transfected cells can be cryopreserved in an assay-ready format.
For compound testing, 100 nL of the compounds (serial dilutions in DMSO) are dispensed with an Echo acoustic dispenser (Labcyte) into the wells of a Corning/Costar clear bottom 384-well white plate. The transfected cells are harvested, counted, and diluted such that 10-25,000 cells in 25 μL are plated into each well of the 384-well compound assay plate. The compound-treated cells are incubated overnight at 37° C. in a humidified 5% CO2 atmosphere. The next morning 25 μL of Steady-Glo (Promega) are added to each well of the plate, the mixture is incubated for 15 min. with shaking, and luminescence is measured on an Envision (Perkin Elmer) plate reader. Background counts from cells treated with DMSO alone are subtracted from all raw counts, and the corrected values are converted to a percentage of the control response attained with 8 μM GW-4064.
(In general: Reporter assays use an easily measured gene product as a stand-in for the process of interest.)
As a reminder, the EC50 is the concentration at which the effect is half-maximal. `O=C(O)c1cc(F)c2nc(N3CCC4(CC3)CC(=Cc3c(-c5c(Cl)cccc5Cl)noc3C3CC3)C4)sc2c1` [Example 1, 2-(2-((5-Cyclopropyl-3-(2,6-dichlorophenyl)isoxazol-4-yl)methylene)-7-azaspiro[3.5]nonan-7-yl)-4-fluorobenzo[d]thiazole-6-carboxylic acid]: the EC50 stood at 41 nM.
Regarding `O=C(O)c1ccc2cc(N3CCC4(CC3)CC(=Cc3c(-c5c(Cl)cccc5Cl)noc3C3CC3)C4)ccc2n1` [Example 2, 6-(2-((5-Cyclopropyl-3-(2,6-dichlorophenyl)isoxazol-4-yl)methylene)-7-azaspiro[3.5]nonan-7-yl)quinoline-2-carboxylic acid], the EC50 was 47 nM.
Turning to `O=C(O)c1cc(F)c2nc(N3CCC4(CC3)CC(Cc3c(-c5ccccc5C(F)(F)F)noc3C3CC3)C4)sc2c1` [Example 3, 2-(2-((5-Cyclopropyl-3-(2-(trifluoromethyl)phenyl)isoxazol-4-yl)methyl)-7-azaspiro[3.5]nonan-7-yl)-4-fluorobenzo[d]thiazole-6-carboxylic acid], the 50% effective concentration (EC50) was 85 nM.
Take `O=C(O)c1cc(F)c2nc(N3CCC4(CC3)CC(Nc3c(-c5c(Cl)cccc5Cl)noc3C3CC3)C4)sc2c1` [Example 5, 2-(2-((5-Cyclopropyl-3-(2,6-dichlorophenyl)isoxazol-4-yl)amino)-7-azaspiro[3.5]nonan-7-yl)-4-fluorobenzo[d]thiazole-6-carboxylic acid]: the EC50 was determined as 60 nM.
On to `O=C(O)c1cc(F)c2nc(N3CCC4(CC3)CC(=Cc3c(C5CC5)nnn3-c3c(Cl)cccc3Cl)C4)sc2c1` [Example 6, 2-(2-((4-Cyclopropyl-1-(2,6-dichlorophenyl)-1H-1,2,3-triazol-5-yl)methylene)-7-azaspiro[3.5]nonan-7-yl)-4-fluorobenzo[d]thiazole-6-carboxylic acid], for which the EC50 is 402 nM.
On to `O=C(O)c1cc(F)c2nc(N3CCC4(CC3)CC(=Cc3c(C5CC5)cnn3-c3c(Cl)cccc3Cl)C4)sc2c1` [Example 7, 2-(2-((4-Cyclopropyl-1-(2,6-dichlorophenyl)-1H-pyrazol-5-yl)methylene)-7-azaspiro[3.5]nonan-7-yl)-4-fluorobenzo[d]thiazole-6-carboxylic acid], for which the EC50 turned out to be 201 nM.
For the compound `O=C(O)c1cc(F)c2nc(N3CCC4(CC3)CC(=Cc3c(-c5c(Cl)cccc5Cl)cnn3C3CC3)C4)sc2c1` [Example 8, 2-(2-((1-Cyclopropyl-4-(2,6-dichlorophenyl)-1H-pyrazol-5-yl)methylene)-7-azaspiro[3.5]nonan-7-yl)-4-fluorobenzo[d]thiazole-6-carboxylic acid], the concentration giving a half-maximal response (EC50) is 422 nM.
As to `O=C(O)c1cccc(CN2CCC3(CC2)CC(=Cc2c(-c4c(Cl)cccc4Cl)noc2C2CC2)C3)c1` [Example 9, 3-((2-((5-Cyclopropyl-3-(2,6-dichlorophenyl)isoxazol-4-yl)methylene)-7-azaspiro[3.5]nonan-7-yl)methyl)benzoic acid], the EC50 is 959 nM.
In the case of `Cc1cccc(Cl)c1-c1noc(C2CC2)c1C=C1CC2(CCN(S(=O)(=O)c3ccc(C(=O)O)cc3)CC2)C1` [Example 10, 4-((2-((3-(2-Chloro-6-methylphenyl)-5-cyclopropylisoxazol-4-yl)methylene)-7-azaspiro[3.5]nonan-7-yl)sulfonyl)benzoic acid], the EC50 amounted to 321 nM.

The assay is the same for the next values; noted with them: Gal4-hFXR reporter in HEK293 cells; relative to 8 μM GW-4064; read-out: FXR EC50.
In the case of `O=C(O)c1cc(F)c2nc(N3CCC4(CC3)CC(Cc3c(-c5c(Cl)cccc5Cl)noc3C3CC3)C4)sc2c1` [Example 11], the EC50 is 44 nM.
With `O=C(O)c1cccc(N2CCC3(CC2)CC(Cc2c(-c4c(Cl)cccc4Cl)noc2C2CC2)C3)n1` [Example 12], the EC50 came out at 2190 nM.
On the same count and under the same terms, under `O=C(O)c1ccc(N2CCC3(CC2)CC(Nc2c(-c4c(Cl)cccc4Cl)noc2C2CC2)C3)nc1` [Example 13] stands 1220 nM; under `O=C(O)c1cccc(N2CCC3(CC2)CC(Nc2c(-c4c(Cl)cccc4Cl)noc2C2CC2)C3)n1` [Example 14], 1570 nM.
Regarding `O=C(O)c1ccc(N2CCC3(CC2)CC(Nc2c(-c4c(Cl)cccc4Cl)noc2C2CC2)C3)nn1` [Example 15], the EC50 was found to be 1820 nM.
Turning to `O=C(O)c1cc(F)c2nc(N3C4CCC3CC3(CC(Nc5c(-c6c(Cl)cccc6Cl)noc5C5CC5)C3)C4)sc2c1` (stereo not shown) [Example 16], the concentration for a half-maximal effect (EC50) stood at 514 nM.
Still for that read-out and setting: for `O=C(O)c1cc(F)c2nc(N3CCC4(CC3)CC(Nc3c(-c5ccccc5OC(F)(F)F)noc3C3CC3)C4)sc2c1` [Example 18] the value was 77 nM.
Turning to `Cn1cc(C(=O)O)c2cnc(N3CCC4(CC3)CC(Nc3c(-c5c(Cl)cccc5Cl)noc3C3CC3)C4)nc21` [Example 19], the EC50 worked out at 305 nM.
`Cc1cc(C(=O)O)cc2sc(N3CCC4(CC3)CC(=Cc3c(C5CC5)nnn3-c3c(Cl)cccc3Cl)C4)nc12` [Example 20]: the EC50 turned out to be 252 nM.
Still for that read-out and setting: under `O=C(O)c1ccc(N2CCC3(CC2)CC(=Cc2c(C4CC4)nnn2-c2c(Cl)cccc2Cl)C3)nc1` [Example 21] stands 5280 nM.
On the same count and under the same terms, for `O=C(O)c1ccc(N2CCC3(CC2)CC(=Cc2c(C4CC4)cnn2-c2c(Cl)cccc2Cl)C3)nc1` [Example 22] the value was 4700 nM; for `O=C(O)c1ccc(N2CCC3(CC2)CC(=Cc2c(-c4c(Cl)cccc4Cl)cnn2C2CC2)C3)nc1` [Example 23], 4640 nM.
The same measure, in the same setting: under `Cn1cc(C(=O)O)c2ccc(N3CCC4(CC3)CC(=Cc3c(-c5c(Cl)cccc5Cl)noc3C3CC3)C4)cc21` [Example 24] stands 9 nM; under `O=C(O)c1cc(C(F)(F)F)c2cc(N3CCC4(CC3)CC(=Cc3c(-c5ccccc5OC(F)(F)F)noc3C3CC3)C4)ccc2n1` [Example 25], 23 nM; under `O=C(O)c1cc(F)c2nc(N3CCC4(CC3)CC(=Cc3c(-c5ccccc5OC(F)(F)F)noc3C3CC3)C4)sc2c1` [Example 26], 352 nM.
Regarding `Cn1cc(C(=O)O)c2ccc(N3CCC4(CC3)CC(=Cc3c(-c5ccccc5OC(F)(F)F)noc3C3CC3)C4)cc21` [Example 27], the EC50 is 21 nM.
Same read-out and setting: for `Cn1cc(C(=O)O)c2ccc(N3CCC4(CC3)CC(=Cc3c(-c5ccccc5OC(F)(F)F)noc3C3CC3)C4)nc21` [Example 28] the value was 229 nM; for `O=C(O)c1ccc2cc(N3CCC4(CC3)CC(=Cc3c(-c5ccccc5C(F)(F)F)noc3C3CC3)C4)ccc2n1` [Example 29], 172 nM.
In the case of `O=C(O)c1cc(C(F)(F)F)c2cc(N3CCC4(CC3)CC(=Cc3c(-c5ccccc5C(F)(F)F)noc3C3CC3)C4)ccc2n1` [Example 30], the EC50 amounted to 12 nM.
For the compound `O=C(O)c1cc(F)c2nc(N3CCC4(CC3)CC(=Cc3c(-c5ccccc5C(F)(F)F)noc3C3CC3)C4)sc2c1` [Example 31], the EC50 is 173 nM.
Take `O=C(O)c1ccc2cc(N3CCC4(CC3)CC(Cc3c(-c5ccccc5C(F)(F)F)noc3C3CC3)C4)ccc2n1` [Example 32]: the half-maximal effective concentration (EC50) came to 243 nM.
As for `O=C(O)c1nc(C(F)(F)F)n2cc(N3CCC4(CC3)CC(=Cc3c(-c5ccccc5C(F)(F)F)noc3C3CC3)C4)ccc12` [Example 33], the EC50 came out at 6 nM.
Consider `O=C(O)c1cc2ccc(N3CCC4(CC3)CC(Cc3c(-c5ccccc5C(F)(F)F)noc3C3CC3)C4)cc2nn1` [Example 34], for which the EC50 is 1350 nM.
`O=C(O)c1cc2ccc(N3CCC4(CC3)CC(Cc3c(-c5ccccc5C(F)(F)F)noc3C3CC3)C4)cc2cn1` [Example 35]: the concentration for a half-maximal effect (EC50) was 960 nM.
On the same count and under the same terms, for `O=C(O)c1cc2ccc(N3CCC4(CC3)CC(=Cc3c(-c5ccccc5C(F)(F)F)noc3C3CC3)C4)cc2nn1` [Example 36] the value was 878 nM; for `O=C(O)c1cc2ccc(N3CCC4(CC3)CC(=Cc3c(-c5ccccc5C(F)(F)F)noc3C3CC3)C4)cc2cn1` [Example 37], 1410 nM; for `Cn1cc(C(=O)O)c2ccc(N3CCC4(CC3)CC(Cc3c(-c5ccccc5C(F)(F)F)noc3C3CC3)C4)cc21` [Example 38], 28 nM.
In the case of `Cn1cc(C(=O)O)c2ccc(N3CCC4(CC3)CC(=Cc3c(-c5ccccc5C(F)(F)F)noc3C3CC3)C4)cc21` [Example 39], the 50% effective concentration (EC50) was found to be 4 nM.
